Source: ChEMBL document CHEMBL1201862, “PubChem BioAssay data set” (2004)
One block for each compound: values may come before it. Activity calls are given as the source filed them.

Assays:
[1] = molecular target: E3 ubiquitin-protein ligase Mdm2/Protein Mdm4 (Homo sapiens, UniProt O15151+Q00987); test: Mdm2-MdmX interaction inhibitors, dose response, luminescence detection (AID 504593); format: functional
[2] = cytotoxicity in HPDE-C7 cells, cell-based, fluorescence, HTS (AID 430); format: functional; conditions: Homo sapiens
[3] = cytotoxicity in KRAS-transformed pancreatic duct cells, primary screen, cell-based, fluorescence, HTS (AID 431); format: functional; conditions: Homo sapiens;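 further: cell line used: HPDE-C7K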
Genome polyprotein = Genome polyprotein (dengue virus type 2, UniProt P29990); test: Dengue-2 NS5 methyltransferase inhibitors, primary screen, biochemical, confirmation dose response (AID 588689); format: functional
Sequence of Genome polyprotein (P29990 2492-3391 limits assumed): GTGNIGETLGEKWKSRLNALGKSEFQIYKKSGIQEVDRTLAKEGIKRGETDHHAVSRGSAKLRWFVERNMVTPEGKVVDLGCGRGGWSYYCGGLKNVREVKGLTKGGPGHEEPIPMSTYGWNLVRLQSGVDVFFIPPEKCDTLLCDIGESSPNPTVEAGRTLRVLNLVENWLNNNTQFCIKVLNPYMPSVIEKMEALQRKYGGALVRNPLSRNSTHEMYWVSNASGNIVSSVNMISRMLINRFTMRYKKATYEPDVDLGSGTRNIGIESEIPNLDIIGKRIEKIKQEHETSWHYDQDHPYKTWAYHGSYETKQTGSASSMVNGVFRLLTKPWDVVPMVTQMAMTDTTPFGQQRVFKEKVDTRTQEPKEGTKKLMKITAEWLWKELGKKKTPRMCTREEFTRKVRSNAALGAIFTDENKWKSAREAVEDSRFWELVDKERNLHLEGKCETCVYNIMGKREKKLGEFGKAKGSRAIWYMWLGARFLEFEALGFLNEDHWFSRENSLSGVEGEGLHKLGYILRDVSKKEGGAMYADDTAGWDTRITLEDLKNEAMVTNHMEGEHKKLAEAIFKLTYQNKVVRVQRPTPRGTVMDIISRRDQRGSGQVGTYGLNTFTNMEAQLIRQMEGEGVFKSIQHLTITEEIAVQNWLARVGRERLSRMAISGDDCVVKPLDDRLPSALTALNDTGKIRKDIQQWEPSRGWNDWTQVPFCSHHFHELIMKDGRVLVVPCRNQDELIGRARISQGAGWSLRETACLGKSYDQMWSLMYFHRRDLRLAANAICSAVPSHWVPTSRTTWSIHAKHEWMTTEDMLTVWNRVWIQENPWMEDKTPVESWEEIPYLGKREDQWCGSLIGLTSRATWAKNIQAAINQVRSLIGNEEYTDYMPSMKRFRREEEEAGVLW

Aminopeptidase N = molecular target: T1, Aminopeptidase N (Plasmodium falciparum FcB1/Columbia, UniProt O96935); test: P. falciparum M1AAP inhibitors, biochemical, fluorogenic H-Leu-NHMec substrate, 1536-well (AID 1445); parameters: species or system Plasmodium falciparum 3D7, 3D7
T1 sequence (O96935 whole entry): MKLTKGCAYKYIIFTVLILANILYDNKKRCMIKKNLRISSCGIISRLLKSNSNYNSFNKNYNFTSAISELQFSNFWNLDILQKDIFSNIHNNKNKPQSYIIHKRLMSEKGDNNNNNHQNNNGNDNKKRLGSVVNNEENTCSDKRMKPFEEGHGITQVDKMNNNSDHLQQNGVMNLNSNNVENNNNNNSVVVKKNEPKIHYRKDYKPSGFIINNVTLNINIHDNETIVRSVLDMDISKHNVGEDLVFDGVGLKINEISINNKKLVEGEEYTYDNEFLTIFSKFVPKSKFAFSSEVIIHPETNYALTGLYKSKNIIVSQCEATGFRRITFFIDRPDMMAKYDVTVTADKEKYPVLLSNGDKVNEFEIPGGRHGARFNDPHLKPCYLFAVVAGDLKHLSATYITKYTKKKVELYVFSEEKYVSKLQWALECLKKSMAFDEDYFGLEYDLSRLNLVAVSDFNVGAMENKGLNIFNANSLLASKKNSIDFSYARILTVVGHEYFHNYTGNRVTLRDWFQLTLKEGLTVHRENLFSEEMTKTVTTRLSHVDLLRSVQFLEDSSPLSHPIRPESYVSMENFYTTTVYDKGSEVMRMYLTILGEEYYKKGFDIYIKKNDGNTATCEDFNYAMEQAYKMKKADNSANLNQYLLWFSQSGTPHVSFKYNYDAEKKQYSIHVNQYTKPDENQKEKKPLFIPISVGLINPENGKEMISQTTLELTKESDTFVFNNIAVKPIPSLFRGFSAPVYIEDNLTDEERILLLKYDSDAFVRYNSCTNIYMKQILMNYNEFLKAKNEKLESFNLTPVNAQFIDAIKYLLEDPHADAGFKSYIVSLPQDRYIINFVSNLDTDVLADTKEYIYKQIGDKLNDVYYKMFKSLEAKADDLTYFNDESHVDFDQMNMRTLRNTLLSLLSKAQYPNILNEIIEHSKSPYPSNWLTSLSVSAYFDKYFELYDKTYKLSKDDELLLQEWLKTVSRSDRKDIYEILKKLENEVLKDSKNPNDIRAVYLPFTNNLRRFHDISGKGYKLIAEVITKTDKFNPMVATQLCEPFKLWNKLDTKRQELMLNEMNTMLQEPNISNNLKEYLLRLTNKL

[4] = molecular target: T2, Probable nicotinate-nucleotide adenylyltransferase (Staphylococcus aureus (strain N315), UniProt P65502); format: functional, Staphylococcus aureus subsp. aureus N315;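 on IC50 Mean: confirmatory dose-response retesting of NadD inhibitor hits first found in an ultra-high-throughput screen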
[5] = molecular target: Envelope glycoprotein gp160 (Human immunodeficiency virus 1, UniProt Q6QLK5); test: inhibitors of HIV fusion peptide binding, primary screen, biochemical, uHTS, fluorescence dequenching (AID 1986)
Sequence of Envelope glycoprotein gp160 (Q6QLK5 whole entry, the tested form may be a part): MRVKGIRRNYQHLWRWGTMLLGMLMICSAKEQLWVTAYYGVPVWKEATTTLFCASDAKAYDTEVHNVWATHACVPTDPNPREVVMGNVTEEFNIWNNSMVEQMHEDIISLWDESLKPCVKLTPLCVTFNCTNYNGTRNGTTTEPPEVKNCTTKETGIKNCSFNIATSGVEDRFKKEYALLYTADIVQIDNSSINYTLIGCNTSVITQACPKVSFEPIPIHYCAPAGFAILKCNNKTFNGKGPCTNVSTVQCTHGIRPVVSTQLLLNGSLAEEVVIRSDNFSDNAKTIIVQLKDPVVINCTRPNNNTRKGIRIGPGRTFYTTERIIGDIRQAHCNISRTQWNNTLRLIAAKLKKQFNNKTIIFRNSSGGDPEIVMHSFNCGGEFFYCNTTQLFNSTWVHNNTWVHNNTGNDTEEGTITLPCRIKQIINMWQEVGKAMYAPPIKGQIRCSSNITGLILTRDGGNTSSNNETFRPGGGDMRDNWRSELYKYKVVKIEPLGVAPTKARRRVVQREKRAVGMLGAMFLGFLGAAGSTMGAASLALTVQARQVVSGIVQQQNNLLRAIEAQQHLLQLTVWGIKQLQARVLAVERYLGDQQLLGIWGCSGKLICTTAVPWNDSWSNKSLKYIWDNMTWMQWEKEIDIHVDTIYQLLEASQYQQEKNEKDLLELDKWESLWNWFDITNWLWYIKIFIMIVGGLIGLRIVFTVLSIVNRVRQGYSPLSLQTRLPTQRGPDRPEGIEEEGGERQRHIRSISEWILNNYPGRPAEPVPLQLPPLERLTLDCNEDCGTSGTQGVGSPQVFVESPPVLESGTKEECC

[6] = molecular target: T2, Probable nicotinate-nucleotide adenylyltransferase; format: functional, Staphylococcus aureus subsp. aureus N315; conditions: read-out: IC50_Mean
[7] = molecular target: T3, Carboxy-terminal domain RNA polymerase II polypeptide A small phosphatase 1 (Homo sapiens, UniProt Q9GZU7); test: inhibitors of CTDSP1, concentration-response testing, biochemical assay, absorbance-based, actives from ultra-high-throughput screening (AID 540297); format: functional
T3 sequence (Q9GZU7 whole entry): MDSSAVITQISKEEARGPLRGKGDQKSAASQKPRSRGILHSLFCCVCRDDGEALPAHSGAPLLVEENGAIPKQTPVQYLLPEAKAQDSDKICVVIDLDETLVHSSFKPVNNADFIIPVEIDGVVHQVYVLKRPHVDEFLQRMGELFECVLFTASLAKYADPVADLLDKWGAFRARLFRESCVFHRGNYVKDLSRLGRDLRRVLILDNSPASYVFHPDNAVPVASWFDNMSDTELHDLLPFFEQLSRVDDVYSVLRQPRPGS

[8] = molecular target: DNA dC->dU-editing enzyme APOBEC-3G (Homo sapiens, UniProt Q9HC16); format: functional;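 further: Dose-response counterscreen measuring inhibition of APOBEC3G DNA deaminase activity, run while confirming APOBEC3A inhibitors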
Sequence of DNA dC->dU-editing enzyme APOBEC-3G (Q9HC16 whole entry): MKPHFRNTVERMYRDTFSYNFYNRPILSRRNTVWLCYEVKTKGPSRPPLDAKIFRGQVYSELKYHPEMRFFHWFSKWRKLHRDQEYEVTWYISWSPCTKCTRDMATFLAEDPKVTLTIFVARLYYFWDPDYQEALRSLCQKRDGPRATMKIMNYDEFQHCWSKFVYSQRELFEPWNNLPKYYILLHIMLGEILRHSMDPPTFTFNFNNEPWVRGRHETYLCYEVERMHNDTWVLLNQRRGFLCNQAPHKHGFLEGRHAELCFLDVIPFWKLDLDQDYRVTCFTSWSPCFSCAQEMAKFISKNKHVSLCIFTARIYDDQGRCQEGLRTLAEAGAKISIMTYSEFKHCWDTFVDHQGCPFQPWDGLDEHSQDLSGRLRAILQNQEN

[9] = molecular target: DNA dC->dU-editing enzyme APOBEC-3A (Homo sapiens, UniProt P31941); test: Dose Response confirmation of small molecule APOBEC3A DNA Deaminase Inhibitors via a fluorescence-based single-stranded DNA deaminase assay. [Related pubchem assays (depositor defined):AID493011, AID493024]; format: functional
Sequence of DNA dC->dU-editing enzyme APOBEC-3A (P31941 whole entry): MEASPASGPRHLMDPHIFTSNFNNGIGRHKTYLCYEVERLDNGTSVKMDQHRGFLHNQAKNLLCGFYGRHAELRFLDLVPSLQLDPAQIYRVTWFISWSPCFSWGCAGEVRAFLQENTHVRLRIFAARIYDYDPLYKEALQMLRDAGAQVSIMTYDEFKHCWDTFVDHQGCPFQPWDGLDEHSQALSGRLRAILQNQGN

CAAX prenyl protease 2 = CAAX prenyl protease 2 (Saccharomyces cerevisiae S288c, UniProt Q03530); format: biochemical
Sequence of CAAX prenyl protease 2 (Q03530 whole entry): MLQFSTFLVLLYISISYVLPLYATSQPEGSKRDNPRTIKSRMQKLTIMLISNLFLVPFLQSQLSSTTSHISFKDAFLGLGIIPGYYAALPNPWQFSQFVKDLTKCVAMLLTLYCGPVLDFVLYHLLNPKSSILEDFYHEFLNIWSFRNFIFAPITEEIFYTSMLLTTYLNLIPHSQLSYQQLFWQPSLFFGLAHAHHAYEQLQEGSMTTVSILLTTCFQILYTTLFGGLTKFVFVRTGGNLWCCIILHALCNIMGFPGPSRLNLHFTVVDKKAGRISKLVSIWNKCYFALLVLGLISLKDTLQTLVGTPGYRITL

Sequence of E3 ubiquitin-protein ligase Mdm2/Protein Mdm4 (Q00987 whole entry): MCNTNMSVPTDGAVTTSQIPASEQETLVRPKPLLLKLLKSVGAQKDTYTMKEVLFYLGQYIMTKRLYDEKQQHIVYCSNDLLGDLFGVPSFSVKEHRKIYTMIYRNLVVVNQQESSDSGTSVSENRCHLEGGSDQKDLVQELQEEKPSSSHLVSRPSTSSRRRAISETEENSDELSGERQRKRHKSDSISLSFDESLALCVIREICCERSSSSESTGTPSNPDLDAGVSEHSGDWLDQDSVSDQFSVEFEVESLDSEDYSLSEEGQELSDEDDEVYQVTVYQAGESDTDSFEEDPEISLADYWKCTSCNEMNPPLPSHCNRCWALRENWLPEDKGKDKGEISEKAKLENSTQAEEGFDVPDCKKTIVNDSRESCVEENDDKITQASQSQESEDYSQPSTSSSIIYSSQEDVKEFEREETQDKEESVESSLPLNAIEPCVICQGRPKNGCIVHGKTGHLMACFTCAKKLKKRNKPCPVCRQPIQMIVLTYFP
Sequence of E3 ubiquitin-protein ligase Mdm2/Protein Mdm4 (O15151 whole entry): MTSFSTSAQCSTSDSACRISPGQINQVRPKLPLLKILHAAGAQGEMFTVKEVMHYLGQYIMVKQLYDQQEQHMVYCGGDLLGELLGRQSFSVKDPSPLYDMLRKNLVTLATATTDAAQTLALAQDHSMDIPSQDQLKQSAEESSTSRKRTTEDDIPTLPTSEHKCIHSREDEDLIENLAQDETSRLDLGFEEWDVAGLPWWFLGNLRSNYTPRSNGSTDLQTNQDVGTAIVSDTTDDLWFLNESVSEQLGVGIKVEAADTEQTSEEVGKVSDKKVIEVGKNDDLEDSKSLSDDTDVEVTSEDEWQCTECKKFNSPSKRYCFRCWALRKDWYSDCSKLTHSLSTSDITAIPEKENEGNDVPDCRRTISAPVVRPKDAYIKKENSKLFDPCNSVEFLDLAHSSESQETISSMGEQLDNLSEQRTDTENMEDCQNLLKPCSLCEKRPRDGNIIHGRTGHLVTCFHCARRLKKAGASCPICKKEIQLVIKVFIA

SMILES: COc1ccc2c(c1)C1(Nc3ccccc3-c3nc4ccccc4n31)C(=O)N2C (centres undefined)
- IC50 [1]: 2.85 µM (active)
- EC50 [2]: > 20 µM (not active)
- EC50 [3]: > 20 µM (not active)

SMILES: CCc1nnc(NS(=O)(=O)c2ccc(NC(=S)NC(=O)/C=C/c3ccc(F)cc3)cc2)s1
- IC50 (Genome polyprotein): 39.3 µM (active)
- IC50 (Aminopeptidase N): 76.7 µM (active)
- IC50 [4]: 4.58 µM (active)
- IC50 [5]: 18.3 µM (active)
- IC50 [6]: 45.4 µM (active)

- IC50 (Genome polyprotein): 41.2 µM (active)
- IC50 [7]: 3.03 µM (active)
- IC50 [5]: > 99 µM (inactive)
SMILES: O=C(O)CCN1C(=O)/C(=C2\C(=O)N(Cc3ccc(F)cc3)c3ccccc32)SC1=S

SMILES: Cc1ccc(C(=O)Nc2cc(Cl)ccc2-n2cncn2)o1
- IC50 [8]: 20.5 µM (active)
- IC50 [9]: 85 µM (active)

- AC50 (CAAX prenyl protease 2): 45.9 µM (active)
SMILES: C[C@@]12CCC=C[C@H]1[C@H](c1ccc(/C=C/c3ccccc3)cc1F)N(Cc1ccccc1)C2=O
